Data: patent publication US10155743B2, “Glutarimide derivatives, use thereof, pharmaceutical composition based thereon and methods for producing glutarimide derivatives” (OBSCHESTVO S OGRANICHENNOI OTVETSTVENNOSTIYU …, priority 2013, dated 2018)

Tests used:
[1] = tested on: human respiratory syncytial virus (strain A2, ATCC VR-1540); assay type: in vivo; conditions: Balb/c mice, cyclophosphan 100 mg/kg 5 days before infection; 30 mg/kg once daily for 5 days from 24 h; score from possible 4; M ± SD, n = 5
[2] = tested on: influenza virus strain A/California/07/09 (H1N1) pdm09; test: animal or person; assay type: in vivo, white outbred female mice; conditions: unidentified influenza virus, H1N1, in Mus musculus, po, 336 h, read-out: Mortality rate, %
[3] = tested on: mucous membrane of nasal passages, formalin-induced acute rhinosinusitis; test: Acute rhinosinusitis rat model (induced by intranasal 7.5% formalin solution); assay type: in vivo, Wistar rats; conditions: rats; for The number of caliciform cells within 1 mm of the mucous membrane of the nasal septum: tested compounds 27 mg/kg for 7 days after induction, M ± m; for Macroscopic changes in the mucous membrane of nasal passages: Muculent or mucopurulent catarrh (number of animals) / Macroscopic changes in the mucous membrane of nasal passages: Without changes (number of animals): tested compounds 27 mg/kg for 7 days, count out of n of the group
Method: Morphological studies of histologic preparations were conducted with a Leica DMLS light-optical microscope (Leica Microsystems, Germany). Micro-morphometric assessment was performed by using an ocular micrometer on a Leica DMLB microscope.
Acute rhinosinusitis was induced by intranasal administration of 20 μl of 7.5% formalin solution (aqueous solution comprising 40% formaldehyde, 8% methyl alcohol, and 52% water) to each nasal passage of rats.
Administration of formalin to rat nasal passages leads to the dissemination of inflammation to adjacent tissues, resulting in a clinical pattern similar to the symptoms of rhinosinusitis in a human.
After an acclimatization period, the following groups were formed: • intact animals administered intragastrically a saline solution in an amount of 0.2 ml, the induction of acute rhinosinusitis was not performed; • a control group consisted of the animals administered intragastrically a saline solution in an amount of 0.2 ml for 7 days after induction of acute rhinosinusitis; • animals administered intramuscularly dexamethasone at a dose of 0.33 mg/kg for 7 days after induction of acute rhinosinusitis; and • animals administered the tested compounds at a dose of 27 mg/kg for 7 days after induction of acute rhinosinusitis.
Clinical observation of each animal was performed every day at least twice daily.
In the experiment with Wistar rats, the induction of acute rhinosinusitis by administration of a 7.5% formalin solution to nasal passages caused in the control group of animals pronounced pathological changes characterizing the development of an acute inflammation process in the nasal mucous. The caused pathology was characterized by congestion, hyperplasia, focal necrosis of the nasal meatus mucous membrane, an increased number of caliciform cells, pronounced infiltration by mononuclear cells and leucocytes, and mucus hyperproduction by submucosal glands.
The mucous and submucous membranes of both nasal passages (respiratory and olfactory regions) of the experimental animals were subjected to a morphological analysis to evaluate a specific activity of the compounds.
For microscopic examination, the sections were stained with hematoxylin and eosin. Detection of acid mukopolysaccharides, the production of which is increased in an inflammation, was performed by histochemical staining of the preparation with Alcian Blue (pH 2.5). The comparison and histological evaluation of changes were performed versus the group of intact rats.
After slaughter, the gross appearance of inflammation in the nasal passages was studied in each animal. Histological, hystochemical and morphological studies of rats were intended to evaluate the following characteristics of nasal passages: congestion of the mucous membrane; hyperplasia and necrosis of nasal epithelium, the number of caliciform cells within 1 mm of the mucous membrane of the nasal septum, and the character of inflammation.
In this study, the efficiency of the mucociliary system was evaluated by the number of caliciform cells and, as a consequence, microscopic changes in the mucous membrane of the nasal passages.

[4] = tested on: hRV strain (GKV reg. No. 2730); test: Antiviral activity against rhinovirus in mice (body weight, lung weight, infectious titer in lungs); assay type: in vivo; conditions: for Body weight of the mice after infection with hRV, day 0: 30 mg/kg orally once daily for 5 days starting 12 hours after infection; for Body weight of the mice after infection with hRV, day 1 / Body weight of the mice after infection with hRV, day 2 / Lung weight of the mice after infection with hRV, day 2 / Body weight of the mice after infection with hRV, day 3 / Lung weight of the mice after infection with hRV, day 3 / Body weight of the mice after infection with hRV, day 4 / Lung weight of the mice after infection with hRV, day 4: 30 mg/kg orally once daily; for Body weight of the mice after infection with hRV, day 1: day 1 after infection; for Body weight of the mice after infection with hRV, day 2 / Lung weight of the mice after infection with hRV, day 2: day 2 after infection; for Body weight of the mice after infection with hRV, day 3 / Lung weight of the mice after infection with hRV, day 3: day 3 after infection; for Body weight of the mice after infection with hRV, day 4 / Lung weight of the mice after infection with hRV, day 4: day 4 after infection; for Suppression of the reproduction of the virus in mouse lungs, Δ lg, Day 2 after infection / Suppression of the reproduction of the virus in mouse lungs, Δ lg, Day 3 after infection / Suppression of the reproduction of the virus in mouse lungs, Δ lg, Day 4 after infection / Infectious titer of the virus in lungs, lg TCID50, Day 2 after infection / Infectious titer of the virus in lungs, lg TCID50, Day 3 after infection / Infectious titer of the virus in lungs, lg TCID50, Day 4 after infection: 30 mg/kg orally; for Suppression of the reproduction of the virus in mouse lungs, Δ lg, Day 2 after infection / Suppression of the reproduction of the virus in mouse lungs, Δ lg, Day 3 after infection / Suppression of the reproduction of the virus in mouse lungs, Δ lg, Day 4 after infection: difference control minus experimental group; for Infectious titer of the virus in lungs, lg TCID50, Day 2 after infection / Infectious titer of the virus in lungs, lg TCID50, Day 3 after infection / Infectious titer of the virus in lungs, lg TCID50, Day 4 after infection: lung suspension titrated in Hela cell culture
[5] = tested on: Coxsackie A2-virus (strain HCXV A2); test: Antiviral activity against Coxsackie virus in vivo (mortality of infected mice); parameters: species or system white mice; conditions: mice; for inhibition in vivo at 30 mg/kg / mortality at 30 mg/kg: Mus musculus, po; for inhibition in vivo at 30 mg/kg: 168 h, read-out: Protective index (%); for inhibition in vivo at 30 mg/kg / Average expectancy life (days), Relative / Average expectancy life (days), Vs. control: 10LD50 HCXV A2, 30 mg/kg orally once daily for 7 days; for mortality at 30 mg/kg: 360 h, 10LD50 HCXV A2 i.m., 30 mg/kg orally once daily for 7 days from 24 h after infection, 15 days monitoring, read-out: Total mortality rate, %; for Average expectancy life (days), Vs. control: difference to virus control

O=C1CCCC(=O)N1CCc1cnc[nH]1 [Compound 1, 1-(2-(1H-imidazol-4-yl)ethyl)piperidine-2,6-dione]
Degree of pulmonary edema on day 5 after infection, score [1]: 1.3 ± 0.27 score
mortality at 30 mg/kg [2]: 35%
The number of caliciform cells within 1 mm of the mucous membrane of the nasal septum [3]: 31.2 ± 1.2
Macroscopic changes in the mucous membrane of nasal passages: Muculent or mucopurulent catarrh (number of animals) [3]: 13
Macroscopic changes in the mucous membrane of nasal passages: Without changes (number of animals) [3]: 5
Body weight of the mice after infection with hRV, day 0 [4]: 7.36 ± 0.97
Body weight of the mice after infection with hRV, day 1 [4]: 8.2 ± 4.25
Body weight of the mice after infection with hRV, day 2 [4]: 13.03 ± 3.51
Lung weight of the mice after infection with hRV, day 2 [4]: 136.9 ± 5.93
Body weight of the mice after infection with hRV, day 3 [4]: 13.47 ± 1.36
Lung weight of the mice after infection with hRV, day 3 [4]: 140.8 ± 5.14
Body weight of the mice after infection with hRV, day 4 [4]: 13.99 ± 1.53
Lung weight of the mice after infection with hRV, day 4 [4]: 128.2 ± 5.81
Suppression of the reproduction of the virus in mouse lungs, Δ lg, Day 2 after infection [4]: 1.1 ± 0.49 Δ lg
Suppression of the reproduction of the virus in mouse lungs, Δ lg, Day 3 after infection [4]: 1.7 ± 0.31 Δ lg
Suppression of the reproduction of the virus in mouse lungs, Δ lg, Day 4 after infection [4]: 2.18 ± 0.08 Δ lg
Infectious titer of the virus in lungs, lg TCID50, Day 2 after infection [4]: 2.9 ± 0.49 lg TCID50
Infectious titer of the virus in lungs, lg TCID50, Day 3 after infection [4]: 0.8 ± 0.31 lg TCID50
Infectious titer of the virus in lungs, lg TCID50, Day 4 after infection [4]: 0.03 ± 0.08 lg TCID50

CC1(C)CC(=O)N(CCc2cnc[nH]2)C(=O)C1 [Compound 3]
Degree of pulmonary edema on day 5 after infection, score [1]: 1.6 ± 0.89 score
The number of caliciform cells within 1 mm of the mucous membrane of the nasal septum [3]: 35.8 ± 0.9
Macroscopic changes in the mucous membrane of nasal passages: Muculent or mucopurulent catarrh (number of animals) [3]: 7
Macroscopic changes in the mucous membrane of nasal passages: Without changes (number of animals) [3]: 5

O=C1CCCC(=O)N1CCC1CCCN1 (stereo not drawn) [Compound 4]
Degree of pulmonary edema on day 5 after infection, score [1]: 1.95 ± 0.31 score
mortality at 30 mg/kg [2]: 65%
Body weight of the mice after infection with hRV, day 0 [4]: 7.77 ± 1.02
Body weight of the mice after infection with hRV, day 1 [4]: 7.27 ± 1.27
Body weight of the mice after infection with hRV, day 2 [4]: 12.66 ± 2.32
Lung weight of the mice after infection with hRV, day 2 [4]: 142 ± 4.81
Body weight of the mice after infection with hRV, day 3 [4]: 13.14 ± 1.5
Lung weight of the mice after infection with hRV, day 3 [4]: 135.9 ± 4.18
Body weight of the mice after infection with hRV, day 4 [4]: 13.23 ± 1.38
Lung weight of the mice after infection with hRV, day 4 [4]: 134.2 ± 3.68
Suppression of the reproduction of the virus in mouse lungs, Δ lg, Day 2 after infection [4]: 1.65 ± 0.65 Δ lg
Suppression of the reproduction of the virus in mouse lungs, Δ lg, Day 3 after infection [4]: 1.9 ± 0.27 Δ lg
Suppression of the reproduction of the virus in mouse lungs, Δ lg, Day 4 after infection [4]: 2.2 ± 4.68 Δ lg
Infectious titer of the virus in lungs, lg TCID50, Day 2 after infection [4]: 2.35 ± 0.65 lg TCID50
Infectious titer of the virus in lungs, lg TCID50, Day 3 after infection [4]: 0.6 ± 0.27 lg TCID50
Infectious titer of the virus in lungs, lg TCID50, Day 4 after infection [4]: 0 ± 0 lg TCID50

Cn1cnc(CCN2C(=O)CCCC2=O)c1 [Compound 5]
Degree of pulmonary edema on day 5 after infection, score [1]: 1.10 ± 0.19 score
mortality at 30 mg/kg [2]: 45%

O=C1CCCC(=O)N1CCc1nccs1 [Compound 6]
Degree of pulmonary edema on day 5 after infection, score [1]: 0.90 ± 0.22 score
The number of caliciform cells within 1 mm of the mucous membrane of the nasal septum [3]: 36.5 ± 0.8
Macroscopic changes in the mucous membrane of nasal passages: Muculent or mucopurulent catarrh (number of animals) [3]: 4
Macroscopic changes in the mucous membrane of nasal passages: Without changes (number of animals) [3]: 2

O=C1CCCC(=O)N1CCc1ccncc1 [Compound 9]
Degree of pulmonary edema on day 5 after infection, score [1]: 1.00 ± 0.17 score

CC1(C)CCC(=O)N(CCc2c[nH]cn2)C1=O [Compound 20]
mortality at 30 mg/kg [2]: 50%
Macroscopic changes in the mucous membrane of nasal passages: Muculent or mucopurulent catarrh (number of animals) [3]: 4
Macroscopic changes in the mucous membrane of nasal passages: Without changes (number of animals) [3]: 4

O=C1CCCC(=O)N1CCN1CCCC1 [Compound 23]
mortality at 30 mg/kg [2]: 40%
inhibition in vivo at 30 mg/kg [5]: 36%
mortality at 30 mg/kg [5]: 50%
Average expectancy life (days), Relative [5]: 23.8 days
Average expectancy life (days), Vs. control [5]: +13.1 days

O=C1CCCC(=O)N1CCn1ccnc1 [Compound 30]
mortality at 30 mg/kg [2]: 50%
inhibition in vivo at 30 mg/kg [5]: 18%
mortality at 30 mg/kg [5]: 60%
Average expectancy life (days), Relative [5]: 13.1 days
Average expectancy life (days), Vs. control [5]: +2.4 days

O=C1CCCC(=O)N1CCc1cn[nH]n1 [Compound 35]
mortality at 30 mg/kg [2]: 55%
inhibition in vivo at 30 mg/kg [5]: 27%
mortality at 30 mg/kg [5]: 53.3%
Average expectancy life (days), Relative [5]: 16.6 days
Average expectancy life (days), Vs. control [5]: +5.9 days

O=C1CCCC(=O)N1CCc1nnn[nH]1 [Compound 36]
mortality at 30 mg/kg [2]: 60%
inhibition in vivo at 30 mg/kg [5]: 27%
mortality at 30 mg/kg [5]: 53.3%
Average expectancy life (days), Relative [5]: 16.7 days
Average expectancy life (days), Vs. control [5]: +6.0 days

O=C1CCCC(=O)N1CCC1CCNC1 (stereo not drawn) [Compound 120]
Degree of pulmonary edema on day 5 after infection, score [1]: 1.05 ± 0.14 score

O=C1CCCC(=O)N1CCC1CCCNC1 (stereo not drawn) [Compound 121]
Degree of pulmonary edema on day 5 after infection, score [1]: 0.90 ± 0.21 score

O=C1CCCC(=O)N1CCC1CCNCC1 [Compound 123]
Degree of pulmonary edema on day 5 after infection, score [1]: 1.30 ± 0.17 score
